We go through one compound from patent US20150283152A1, “Levonorgestrel-Only-Composition For Optimized Oral Contraception With Defined Levonorgestrel Content, Dosage Regimen And Pharmaceutical Preparation” (NAARI AG, priority 2012, published 2015).

Data set [1] has as its system immature male Wistar-rats. The data set can be described thus: Weight of gonads in immature male rats (antigonadotrophic effect). The format is in vivo, rat. The settings on record: final control 873.5 ± 62.5, p < 0.05. The text has this:
The influence of levonorgestrel on the secretion of gonadotrophins from the pituitary can be estimated by recording the dose-effect relationships in reducing the weight of the gonads of immature male rats. [table]

The test system of a further data set is New Zealand-rabbits. The data set can be described thus: Pre-ovulatory repeated oral levonorgestrel, rate of fertilized eggs in rabbits (ovulation induced by PMSG/hCG). The format is in vivo, rabbit. The settings on record: for % fertilized (cleaved) eggs: control 90.6. The text has this: On the last day of LNG-administration, the ovulation was “forced” by intravenous (i.v.) injection of human chorionic gonadotropin (hCG). […] [table]

For data set [2] the following is noted: Martinez F et al. 2012; cited from earlier work.
For data set [3], the system named is female paired Wistar-rats. The data set can be described thus: Post-ovulatory subcutaneous levonorgestrel, fertility of female paired rats. The format is in vivo, rat. The protocol:
Whereas 20 mg/kg bodyweight (b.w.). […] [table]

The subject of a further data set is women. The settings on record: without estrogen; cited from earlier work.
Another data set has as its system Luteinizing Hormone (LH). Description: Serum levels of Luteinizing Hormone in male castrated rats (radioimmunoassay). The settings on record: gonadectomized control 127.0 ± 11.0, p < 0.05. The class given is in vivo, rat.
The mark [4] stands for this setting: total dosage 0.35 mg/animal p.o. over 3 days.
The mark [5] stands for this setting: total dosage 1.75 mg/animal p.o. over 3 days.
Setting [6] is: s.c. days 1-4 p.i., total dose 0.2 mg/animal/4 days.
Setting [7] is: s.c. days 1-4 p.i., total dose 2.0 mg/animal/4 days.
Where [8] appears, read: s.c. once Day 1 p.i., total dose 4.0 mg/animal.

`C#C[C@]1(O)CC[C@H]2[C@@H]3CCC4=CC(=O)CC[C@@H]4[C@H]3CC[C@@]21CC` [levonorgestrel]: the “Gonadal weight/mg Mean ± (S.E.M.)” value in data set [1] (total dose 0.14 mg/animal over 14 d s.c.) came to 579.7 ± 44.7 mg; in data set [1] (total dose 0.42 mg/animal over 14 d s.c.), 385.7 ± 74.3 mg; in data set [1] (total dose 1.40 mg/animal over 14 d s.c.) it was 180.8 ± 105.5 mg. Further, the “Total no. of eggs vs. total no. of fertilized (cleaved) eggs” value in the data set on New Zealand-rabbits (setting [4]) is given as 92/78; in the data set with New Zealand-rabbits (setting [5]), 81/49. Moreover, the “% fertilized (cleaved) eggs” value is on record as 84.8% in the data set with New Zealand-rabbits (setting [4]), 60.5% in the data set on New Zealand-rabbits (setting [5]) and 54.5% in the data set on New Zealand-rabbits (total dosage 5.25 mg/animal p.o. over 3 days). For the same compound, the “risk of venous thromboembolism (VTE)” value in data set [2] is reported as “currently the safest progestin”. Besides, the “No. of treated animals vs. no. of intact pregnancies” value is given as 10/9 in data set [3] (setting [6]), 10/0 in data set [3] (setting [7]) and 12/12 in data set [3] (setting [8]). Moreover, the “Pregnancy inhibition (%)” value worked out at 10% in data set [3] (setting [6]), 100% in data set [3] (setting [7]) and 0% in data set [3] (setting [8]). In the data set with women, the “daily dosage leading to non-acceptable bleeding irregularities” value is reported as “over 0.125 mg”. The “Luteinizing Hormone ng/mL serum” value is 68.4 ± 15.4 ng/mL serum in the data set on Luteinizing Hormone (LH) (total dose 0.14 mg/animal/14 d s.c.) and 2.2 ± 0.3 ng/mL serum in the data set with Luteinizing Hormone (LH) (total dose 1.40 mg/animal/14 d s.c.).
